Data as given in patent US8946436B2, “Oxazolidinone compounds and their uses in preparation of antibiotics” (Sichuan Gooddoctor Pharmaceutical Group Co., Ltd., priority 2011, dated 2015).
Values after ≈ are worked out from the molar mass of the structure shown. Where two headings read alike, the source gives them in different places.

Legend:
L-02 = assay: Cytotoxicity experiment (MTT), L-02; format: cell-based; details: Homo sapiens, L02, 48 h, L-02 normal cells, read-out: Inhibition ratio
Experimental: (§1) (1) Inoculating cells: Experimental cells in the growth of logarithmic phase were collected and suspended. The cell concentration of the suspension was adjusted so that they could be inoculated into the wells of 96-well micro plate at a density between 10^3-10^4 cells per well (200 μl per well). (2) Culturing cells: The cells were cultured at normal conditions for 3 days and then exposed to 50 uM compounds for test. (3) Coloring reaction: At 24 h, 48 h and 72 h after the cells being exposed to the compounds for test, 200 μl culture medium containing 20 μl MTT solution (5 mg/ml) was added into each well, and the well was further incubated at 37° C. for 2 hours to terminate the incubation. After the incubation, the supernatants were removed from the wells. In the event there were suspended cells in the wells, centrifugation should be performed before removal of supernatant from the wells. After the removal, 150 μl DMSO was added to each well and mixed thoroughly by agitation for 10 mins to fully dissolve crystals. (4) Ascertainment of colorimetry: The absorbance value at 490 nm of each well was determined by Enzyme-linked immunosorbent Monitor. The growth curve of the experimental cells was plotted by taking time as x-coordinate and absorbance value as y-coordinate. In addition, an inhibition ratio could be calculated in accordance with the following formula: Inhibition ratio=(absorbance value of control group-absorbance value of administering group)/absorbance value of control group×100%.

HEK-293 = assay: Cytotoxicity experiment (MTT), HEK-293; format: cell-based; details: Homo sapiens, HEK293, 48 h, HEK-293 normal cells, read-out: Inhibition ratio
Experimental: as §1

S. agalactiae = assay: In vitro antibacterial activity (MIC), S. agalactiae; format: cell-based; details: Streptococcus agalactiae
Experimental: (§2) The test strain was inoculated into the liquid medium and cultured at 37° C. for 16-18 h. The culture liquid and MH medium were put into two blank wells of a 96-well plate, respectively. Then, the absorptions thereof were measured by a Microplate reader. The difference between the absorption values of the culture liquid and MH medium is the adsorption of the bacteria. The concentration of the culture liquid can be calculated according to the formula of 1OD=50 million CFU/mL. The culture liquid was diluted with the MH bouillon culture medium to 5000 CFU/mL for further use.
(§3) Compounds 12a, 13 and 14 were dissolved in DMSO to 1 mg/mL, and then filtered with a 0.22 μm filter to obtain the compound solutions. And then they were gradually diluted to a desired concentration (10× final concentration) with the liquid medium, so as to obtain a series of dilutions. The final concentration grade of the dilutions of each tested compound consists of 14 concentrations, which includes: 0.03125 μg/mL, […], 0.125 μg/mL, 0.25 μg/mL, […], 1 μg/mL, 2 μg/mL, 4 μg/mL, 8 μg/mL, 16 μg/mL, 32 μg/mL, 64 μg/mL, 128 μg/mL and 256 μg/mL.
(§4) 10 μL of each of the compound dilutions above was added into a well of a 96-well plate. 90 μL of the culture liquid (5000 CFU/mL) was added into each of the wells, respectively, mixed with the dilutions to render the tested compound concentration to the final concentration. The resulted mixture was incubated at 37° C. for 16-18 h, and then the OD630 thereof was measured. A culture liquid free of the tested compounds is used as a blank control, and three parallel tests with the same concentration of each compound were performed. The minimum inhibitory concentration (MIC) of each compound on the standard strain of Staphylococcus Aureus and other test strains was determined. Specifically, among the culture liquid contained in the wells of the micro-plate, the first three lowest concentrations under which growth of the test strains could be observed were chose for further evaluation of the MIC. A culture liquid free of tested compounds was used as a blank control. Each of the culture liquids was homogenized independently, and then was diluted with a sterile saline. Each of the diluted culture liquids was plated onto a MH bouillon plate and incubated at 37° C. for 20 h in incubator. After the incubation, the number of the colonies on each plate was counted. As compared with the blank control group, the lowest concentration of each of the test compound groups, at which 80% reduction in the colony number of the strains was achieved, was recorded as the MIC.

S. aureus = assay: In vitro antibacterial activity (MIC), S. aureus; format: cell-based, Staphylococcus Aureus; details: Staphylococcus aureus
Experimental: Strains: strain ATCC25923 is available from the American Type Culture Collection, and is used as a standard strain of Staphylococcus Aureus;
Liquid medium: MH bouillon culture medium, a product of BD Company, United States of American;
Tested Compounds: compounds 12a, 13 and 14 prepared according to the methods above, and Linezolid purchased from Pfizer.
as §2, §3, §4

E. faecalis = assay: In vitro antibacterial activity (MIC), E. faecalis; format: cell-based; details: Enterococcus faecalis
Experimental: as §2, §3, §4

S. pneumoniae = assay: In vitro antibacterial activity (MIC), S. pneumoniae; format: cell-based; details: Streptococcus pneumoniae
Experimental: as §2, §3, §4

[1] = S. agalactiae (5 strains), read-out: MIC
[2] = S. aureus (12 strains), read-out: MIC
[3] = E. faecalis (7 strains), read-out: MIC
[4] = S. pneumoniae (10 strains), read-out: MIC

Row | SMILES | melting point [°C] | MIC (S. agalactiae; [1]) [µg/mL] | MIC (S. aureus; [2]) [µg/mL] | MIC (E. faecalis; [3]) [µg/mL] | MIC (S. pneumoniae; [4]) [µg/mL] | cytotoxicity at 50 µM (L-02) [%] | cytotoxicity at 50 µM (HEK-293) [%] | MIC (S. agalactiae) [µg/mL] | MIC (S. aureus) [µg/mL] | MIC (E. faecalis) [µg/mL] | MIC (S. pneumoniae) [µg/mL]
1 | COc1ccc(-c2ccnn2-c2ccc(N3C[C@H](CNC(C)=O)OC3=O)cc2F)cc1OC [Compound 14j, (S)-N-((3-(3-fluoro-4-(5-(3,4-dimethoxyphenyl)-1H-pyrazol-1-yl)phenyl)-2-oxooxazolidin-5-yl)methyl) acetamide] | 153.7 to 156.1 |  |  |  |  | 12 | 7 | 0.25 to 2 (≈ 0.55 to 4.4 µM) | 0.25 to 2 (≈ 0.55 to 4.4 µM) | 0.5 to 2 (≈ 1.1 to 4.4 µM) | 0.25 to 1 (≈ 0.55 to 2.2 µM)
2 | CC(=O)NC[C@H]1CN(c2ccc(-n3cc(-c4ccc(C)cc4)cn3)c(F)c2)C(=O)O1 [Compound 13b, (S)-N-((3-(3-fluoro-4-(4-(p-tolyl)-1H-pyrazol-1-yl)phenyl)-2-oxooxazolidin-5-yl)methyl)acetamide] | 221.5 to 222.8 | 0.25 to 8 (≈ 0.612 to 19.6 µM) | 1 to 8 (≈ 2.45 to 19.6 µM) | 0.5 to 8 (≈ 1.22 to 19.6 µM) | 0.5 to 8 (≈ 1.22 to 19.6 µM) | 5.58 | 12 |  |  |  | 
3 | CC(=O)NC[C@H]1CN(c2ccc(-n3cc(-c4ccc(C(=O)O)cn4)cn3)c(F)c2)C(=O)O1 [Compound 13e, (S)-N-((3-(3-fluoro-4-(4-(5-carboxyl-pyridin-2-yl)-1H-pyrazol-1-yl)phenyl)-2-oxooxazolidin-5-yl)methyl) acetamide] | 279.6 to 280.2 | 0.5 to 4 (≈ 1.14 to 9.1 µM) | 1 to 8 (≈ 2.28 to 18.2 µM) | 1 to 8 (≈ 2.28 to 18.2 µM) | 0.5 to 8 (≈ 1.14 to 18.2 µM) | 38 | 36.3 |  |  |  | 
4 | COc1ccc(-c2cnn(-c3ccc(N4C[C@H](CNC(C)=O)OC4=O)cc3F)c2)cc1 [Compound 13c, (S)-N-((3-(3-fluoro-4-(4-(4-methoxyphenyl)-1H-pyrazol-1-yl)phenyl)-2-oxooxazolidin-5-yl)methyl) acetamide] | 226.1 to 227.8 | 0.5 to 8 (≈ 1.18 to 18.8 µM) | 1 to 8 (≈ 2.36 to 18.8 µM) | 0.25 to 8 (≈ 0.589 to 18.8 µM) | 0.5 to 8 (≈ 1.18 to 18.8 µM) | 10.4 | 32 |  |  |  | 
5 | CC(=O)NC[C@H]1CN(c2ccc(-n3cc(-c4ccc(Cl)cc4)cn3)c(F)c2)C(=O)O1 [Compound 13d, (S)-N-((3-(3-fluoro-4-(4-(4-chlorophenyl)-1H-pyrazol-1-yl)phenyl)-2-oxooxazolidin-5-yl)methyl)acetamide] | 237.5 to 238.2 |  |  |  |  | 39.3 | 21 | 0.5 to 8 (≈ 1.17 to 18.7 µM) | 1 to 4 (≈ 2.33 to 9.33 µM) | 0.5 to 8 (≈ 1.17 to 18.7 µM) | 0.25 to 4 (≈ 0.583 to 9.33 µM)
6 | CC(=O)NC[C@H]1CN(c2ccc(-n3ccc(-c4ccccn4)n3)c(F)c2)C(=O)O1 [Compound 12a, (S)-N-((3-(3-fluoro-4-(3-(pyridin-2-yl)-1H-pyrazol-1-yl)phenyl)-2-oxooxazolidin-5-yl)methyl)acetamide] |  | 2 to 16 (≈ 5.06 to 40.5 µM) | 2 to 16 (≈ 5.06 to 40.5 µM) | 2 to 16 (≈ 5.06 to 40.5 µM) | 1 to 16 (≈ 2.53 to 40.5 µM) | 20 | 5.5 |  |  |  | 
7 | CC(=O)NC[C@H]1CN(c2ccc(-n3cc(-c4ccncc4)cn3)c(F)c2)C(=O)O1 [Compound 13a, (S)-N-((3-(3-fluoro-4-(4-(pyridin-4-yl)-1H-pyrazol-1-yl)phenyl)-2-oxooxazolidin-5-yl)methyl)acetamide] |  | 0.25 to 16 (≈ 0.632 to 40.5 µM) | 0.5 to 16 (≈ 1.26 to 40.5 µM) | 0.25 to 16 (≈ 0.632 to 40.5 µM) | 0.125 to 16 (≈ 0.316 to 40.5 µM) | 4 | 11 |  |  |  | 
8 | CC(=O)NC[C@H]1CN(c2ccc(-n3nccc3-c3ccc(Br)cc3)c(F)c2)C(=O)O1 [Compound 14d, (S)-N-((3-(3-fluoro-4-(5-(4-bromophenyl)-1H-pyrazol-1-yl)phenyl)-2-oxooxazolidin-5-yl)methyl)acetamide] | 96.8 to 98.8 |  |  |  |  | 39 | 55 | 2 to 16 (≈ 4.23 to 33.8 µM) | 2 to 16 (≈ 4.23 to 33.8 µM) | 2 to 16 (≈ 4.23 to 33.8 µM) | 1 to 8 (≈ 2.11 to 16.9 µM)

Continued, in another order:

Row | melting point [°C] | MIC (S. agalactiae; [1]) [µg/mL] | MIC (S. aureus; [2]) [µg/mL] | MIC (E. faecalis; [3]) [µg/mL] | MIC (S. pneumoniae; [4]) [µg/mL] | SMILES | cytotoxicity at 50 µM (L-02) [%] | cytotoxicity at 50 µM (HEK-293) [%] | MIC (S. agalactiae) [µg/mL] | MIC (S. aureus) [µg/mL] | MIC (E. faecalis) [µg/mL] | MIC (S. pneumoniae) [µg/mL]
9 |  | 2 to 16 (≈ 5.06 to 40.5 µM) | 2 to 16 (≈ 5.06 to 40.5 µM) | 2 to 16 (≈ 5.06 to 40.5 µM) | 1 to 16 (≈ 2.53 to 40.5 µM) | CC(=O)NC[C@H]1CN(c2ccc(-n3nccc3-c3cccnc3)c(F)c2)C(=O)O1 [Compound 14a, (S)-N-((3-(3-fluoro-4-(5-(pyridin-3-yl)-1H-pyrazol-1-yl)phenyl)-2-oxooxazolidin-5-yl)methyl)acetamide] | 7.51 | 14 |  |  |  | 
10 | 92.7 to 95.4 | 0.5 to 8 (≈ 1.05 to 16.9 µM) | 1 to 8 (≈ 2.11 to 16.9 µM) | 0.25 to 8 (≈ 0.527 to 16.9 µM) | 0.5 to 8 (≈ 1.05 to 16.9 µM) | CC(=O)NC[C@H]1CN(c2ccc(-n3nccc3-c3ccc(Br)cn3)c(F)c2)C(=O)O1 [Compound 14g, (S)-N-((3-(3-fluoro-4-(5-(5-bromopyridin-2-yl)-1H-pyrazol-1-yl)phenyl)-2-oxooxazolidin-5-yl)methyl) acetamide] | 5.9 | 10 |  |  |  | 
11 | 74.5 to 76.3 | 0.5 to 8 (≈ 1.26 to 20.2 µM) | 1 to 4 (≈ 2.53 to 10.1 µM) | 0.5 to 8 (≈ 1.26 to 20.2 µM) | 0.25 to 4 (≈ 0.632 to 10.1 µM) | CC(=O)NC[C@H]1CN(c2ccc(-n3nccc3-c3ccncc3)c(F)c2)C(=O)O1 [Compound 14h, (S)-N-((3-(3-fluoro-4-(5-(pyridin-4-yl)-1H-pyrazol-1-yl)phenyl)-2-oxooxazolidin-5-yl)methyl)acetamide] | 14 | 5 |  |  |  | 
12 | 175.4 to 177.6 | 0.25 to 8 (≈ 0.568 to 18.2 µM) | 1 to 8 (≈ 2.27 to 18.2 µM) | 0.5 to 8 (≈ 1.14 to 18.2 µM) | 0.5 to 8 (≈ 1.14 to 18.2 µM) | CSc1ccc(-c2ccnn2-c2ccc(N3C[C@H](CNC(C)=O)OC3=O)cc2F)cc1 [Compound 14f, (S)-N-((3-(3-fluoro-4-(5-(4-(methylthio)phenyl)-1H-pyrazol-1-yl)phenyl)-2-oxooxazolidin-5-yl)methyl) acetamide] | 29 | 40 |  |  |  | 
13 | 111.4 to 112.9 | 0.5 to 4 (≈ 1.21 to 9.7 µM) | 1 to 8 (≈ 2.42 to 19.4 µM) | 1 to 8 (≈ 2.42 to 19.4 µM) | 0.5 to 8 (≈ 1.21 to 19.4 µM) | CC(=O)NC[C@H]1CN(c2ccc(-n3nccc3-c3ccc(F)cc3)c(F)c2)C(=O)O1 [Compound 14i, (S)-N-((3-(3-fluoro-4-(5-(4-fluorophenyl)-1H-pyrazol-1-yl)phenyl)-2-oxooxazolidin-5-yl)methyl)acetamide] | 9 | 5.5 |  |  |  | 
14 | 79.9 to 82.1 | 0.25 to 16 (≈ 0.632 to 40.5 µM) | 0.5 to 16 (≈ 1.26 to 40.5 µM) | 0.25 to 16 (≈ 0.632 to 40.5 µM) | 0.125 to 16 (≈ 0.316 to 40.5 µM) | CC(=O)NC[C@H]1CN(c2ccc(-n3nccc3-c3ccccn3)c(F)c2)C(=O)O1 [Compound 14e, (S)-N-((3-(3-fluoro-4-(5-(pyridin-2-yl)-1H-pyrazol-1-yl)phenyl)-2-oxooxazolidin-5-yl)methyl)acetamide] | 39 | 47 |  |  |  | 
